Laboratory results reported in patent publication US4740233A, “Substituted 1,2,4-triazolo[1,5-a]-pyrimidine-2-sulfonamides and compositions and methods of controlling undesired vegetation and suppressing the nitrification of ammonium nitrogen in soil” (The Dow Chemical Company, priority 1986, dated 1988).

Columns and labels:
[1] = system: yellow nutsedge; assay: Postemergent control of plant species; type: in vivo, Cyperus esculentus; details: Cyperus, post-emergence, 336 h, read-out: percent postemergent control
Protocol: (§1) In representative operations, each compound to be utilized in a series of tests is dissolved in acetone to one-half of the final volume (twice the final concentration) to be used and the acetone solution in each case is admixed with an equal volume of water containing 0.1 percent by weight of surface active material. The compositions, generally in the nature of an emulsion, were employed to spray separate respective plant species which had been grown to a 2-4 leaf stage in soil of good nutrient content in a greenhouse. The various beds were positioned side by side and exposed to substantially identical conditions of temperature and light. Each bed was maintained so as to prevent any interaction with test compounds in different seed beds. Other plants were left untreated to serve as controls. After treatment, the plants were maintained for about two weeks under greenhouse conditions conducive for good plant growth and watered as necessary. Control refers to the reduction in growth compared to the observed results of the same untreated species.

[2] = system: wild oats; assay: Postemergent control of plant species; type: in vivo, Avena fatua; details: Avena fatua, post-emergence, 336 h, read-out: percent postemergent control
Protocol: as §1

[3] = system: jimsonweed; assay: Postemergent control of plant species; type: in vivo, Datura stramonium; details: Datura stramonium, post-emergence, 336 h, read-out: percent postemergent control
Protocol: as §1

[4] = system: wheat; assay: Postemergent control of plant species; type: in vivo, Triticum aestivum; details: Triticum aestivum, post-emergence, 336 h, read-out: percent postemergent control
Protocol: as §1

[5] = system: johnson grass; assay: Postemergent control of plant species; type: in vivo, Sorghum halepense; details: Sorghum halepense, post-emergence, 336 h, read-out: percent postemergent control
Protocol: as §1

[6] = system: sorghum; assay: Postemergent control of plant species; type: in vivo, Sorghum vulgare; details: Sorghum, post-emergence, 336 h, read-out: percent postemergent control
Protocol: as §1

[7] = system: rice; assay: Postemergent control of plant species; type: in vivo, Oryza sativa; details: Oryza sativa, post-emergence, 336 h, read-out: percent postemergent control
Protocol: as §1

[8] = system: velvetleaf; assay: Postemergent control of plant species; type: in vivo, Abutilon theophrasti; details: Abutilon theophrasti, post-emergence, 336 h, read-out: percent postemergent control
Protocol: as §1

[9] = system: cocklebur; assay: Postemergent control of plant species; type: in vivo, Xanthium spp.; details: Xanthium strumarium, post-emergence, 336 h, read-out: percent postemergent control
Protocol: as §1

[10] = system: cotton; assay: Postemergent control of plant species; type: in vivo, Gossypium spp.; details: Gossypium hirsutum, post-emergence, 336 h, read-out: percent postemergent control
Protocol: as §1

[11] = system: crabgrass; assay: Postemergent control of plant species; type: in vivo, Digitaria spp.; details: Digitaria sanguinalis, post-emergence, 336 h, read-out: percent postemergent control
Protocol: as §1

[12] = system: yellow foxtail; assay: Postemergent control of plant species; type: in vivo, Setaria lutescens; details: Setaria, post-emergence, 336 h, read-out: percent postemergent control
Protocol: as §1

[13] = system: soybean; assay: Postemergent control of plant species; type: in vivo, Glycine max.; details: Glycine max, post-emergence, 336 h, read-out: percent postemergent control
Protocol: as §1

[14] = system: rape; assay: Postemergent control of plant species; type: in vivo, Brassica napus; details: Brassica napus, post-emergence, 336 h, read-out: percent postemergent control
Protocol: as §1

[15] = system: barnyardgrass; assay: Postemergent control of plant species; type: in vivo, Echinochloa crusgalli; details: Echinochloa crus-galli, post-emergence, 336 h, read-out: percent postemergent control
Protocol: as §1

[16] = system: corn; assay: Postemergent control of plant species; type: in vivo, Zea mays; details: Zea mays, post-emergence, 336 h, read-out: percent postemergent control
Protocol: as §1

[17] = system: annual morning glory; assay: Postemergent control of plant species; type: in vivo, Ipomoea spp.; details: Ipomoea, post-emergence, 336 h, read-out: percent postemergent control
Protocol: as §1

[18] = system: sugar beet; assay: Postemergent control of plant species; type: in vivo, Beta saccharifera; details: Beta vulgaris, post-emergence, 336 h, read-out: percent postemergent control
Protocol: as §1

[19] = system: nitrification of ammonium nitrogen; assay: Suppression of nitrification of ammonium nitrogen in soil; details: 27° C.
In short: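 Soil (20 g) moistened to its 1/3 bar tension value, mixed with test chemical and incubated sealed for two weeks at 27° C. Nitrate extracted with ammonium sulfate solution and measured by nitrate-specific ion electrode; value given as % NH4-N remaining.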

[20] = system: yellow nutsedge; assay: Control of aquatic plant species (paddy water); type: in vivo, Cyperus esculentus; details: Cyperus, 216 h, nine days, read-out: Percent control; for pest or weed control at 31 g/ha: 0.031 Kg/Ha
Protocol: (§2) In testing for such utility, the plant species to be tested were transplanted into 16 oz. containers into about 2 inches of soil when they were in the 1-2 inch stage and then flooded to a depth of about 1 inch. An acetone concentrate of the chemical to be tested was then injected into the paddy water, the volume injected being varied as desired to provide the desired concentration. Percent control was evaluated nine days after application.

[21] = system: barnyardgrass; assay: Control of aquatic plant species (paddy water); type: in vivo, Echinochloa crusgalli; details: Echinochloa crus-galli, 216 h, nine days, read-out: Percent control; for pest or weed control at 31 g/ha: 0.031 Kg/Ha
Protocol: as §2

[22] = system: rice; assay: Control of aquatic plant species (paddy water); type: in vivo, Oryza sativa; details: Oryza sativa, 216 h, nine days, read-out: Percent control; for pest or weed control at 31 g/ha: 0.031 Kg/Ha
Protocol: as §2

[23] = system: sprangletop; assay: Control of aquatic plant species (paddy water); type: in vivo, Leptochloa filiformis; details: Leptochloa filiformis, 216 h, nine days, read-out: Percent control; for pest or weed control at 31 g/ha: 0.031 Kg/Ha
Protocol: as §2

[24] = system: pigweed; assay: Postemergent control of plant species; type: in vivo, Amaranthus spp.; details: Amaranthus retroflexus, post-emergence, 336 h, read-out: percent postemergent control
Protocol: as §1

| SMILES | pest or weed control at 500 ppm [1] | pest or weed control at 500 ppm [2] | pest or weed control at 500 ppm [3] | plant injury at 500 ppm [4] | pest or weed control at 500 ppm [5] | plant injury at 500 ppm [6] | plant injury at 500 ppm [7] | pest or weed control at 500 ppm [8] | pest or weed control at 500 ppm [9] | pest or weed control at 500 ppm [11] | pest or weed control at 500 ppm [12] | plant injury at 500 ppm [13] | plant injury at 500 ppm [14] | pest or weed control at 500 ppm [15] | plant injury at 500 ppm [16] | pest or weed control at 500 ppm [17] | % NH4-N Remaining After 2 Weeks Incubation ([19]; 0.01 ppm) | % NH4-N Remaining After 2 Weeks Incubation ([19]; 0.1 ppm) | % NH4-N Remaining After 2 Weeks Incubation ([19]; 1 ppm) | % NH4-N Remaining After 2 Weeks Incubation ([19]; 10 ppm) | other results |
| --- | --- | --- | --- | --- | --- | --- | --- | --- | --- | --- | --- | --- | --- | --- | --- | --- | --- | --- | --- | --- | --- |
| Cc1ccc(NS(=O)(=O)c2nc3nc(C)cc(C)n3n2)c(Cl)c1 [Compound 48] | 0% | 0% | 30% | 0% | 0% | 0% | 0% | 40% | 70% | 0% | 0% | 55% | 75% | 0% | 0% | 60% | 0% | 3% | 56% | 93% | plant injury at 500 ppm [10]: 10%; plant injury at 500 ppm [18]: 70% |
| Cc1cc(C)n2nc(S(=O)(=O)Nc3c(Cl)cccc3I)nc2n1 [Compound 53] |  |  |  |  |  |  |  |  |  |  |  |  |  |  |  |  | 47% | 71% | 85% | 93% | pest or weed control at 31 g/ha [20]: 95%; pest or weed control at 500 g/ha ([20]; 0.5 Kg/Ha): 99%; pest or weed control at 31 g/ha [21]: 80%; pest or weed control at 500 g/ha ([21]; 0.5 Kg/Ha): 99%; pest or weed control at 31 g/ha [22]: 0%; pest or weed control at 500 g/ha ([22]; 0.5 Kg/Ha): 99%; pest or weed control at 31 g/ha [23]: 10%; pest or weed control at 500 g/ha ([23]; 0.5 Kg/Ha): 97% |
| Cc1ccn2nc(S(=O)(=O)N(C(=O)N(C)C)c3c(Cl)cccc3Cl)nc2n1 [Compound 273] | 40% | 0% | 100% | 0% | 30% | 40% | 20% | 50% | 40% | 100% | 75% | 40% | 100% | 20% | 0% | 80% |  |  |  |  | pest or weed control at 500 ppm [24]: 100%; plant injury at 500 ppm [18]: 100% |
| Cc1cc(C)n2nc(S(=O)(=O)Nc3c(Br)cccc3Br)nc2n1 [Compound 38] |  |  |  |  |  |  |  |  |  |  |  |  |  |  |  |  | 46% | 68% | 84% | 94% | pest or weed control at 31 g/ha [20]: 95%; pest or weed control at 250 g/ha ([20]; 0.25 Kg/Ha): 97%; pest or weed control at 31 g/ha [21]: 80%; pest or weed control at 250 g/ha ([21]; 0.25 Kg/Ha): 99%; pest or weed control at 31 g/ha [22]: 0%; pest or weed control at 250 g/ha ([22]; 0.25 Kg/Ha): 97%; pest or weed control at 31 g/ha [23]: 0%; pest or weed control at 250 g/ha ([23]; 0.25 Kg/Ha): 85% |
